Data as given in the NIST ThermoML archive (doi:10.1021/je060271a).

Details: 323.14 K, Liquid, Vibrating tube method

CCCCCCC(=O)OCC(COC(=O)CCCCCC)(COC(=O)CCCCCC)COC(=O)CCCCCC [pentaerythritol tetraheptanoate]
Details | mass density [kg/m3]
1867.1 kPa | 956.8
1879.2 kPa | 956.9
1889.3 kPa | 956.8
1901.4 kPa | 957
1911.9 kPa | 956.9
1922.6 kPa | 956.9
1933.4 kPa | 956.9
1945.7 kPa | 956.9
1956.8 kPa | 957
1967.4 kPa | 957
1980.8 kPa | 957
1992.6 kPa | 957
2003.7 kPa | 957.1
2015.1 kPa | 956.9
2026.2 kPa | 956.9
2040.3 kPa | 957.1
2051.7 kPa | 957
2063 kPa | 957
2075 kPa | 956.9
2089.2 kPa | 957.1
2101.9 kPa | 957
2226.1 kPa | 957
2302.3 kPa | 957.1
2543.1 kPa | 957.3
2581.9 kPa | 957.3
2614.7 kPa | 957.4
2750.1 kPa | 957.5
2958.7 kPa | 957.6
3185.1 kPa | 957.8
3256.6 kPa | 957.9
3279.3 kPa | 957.8
3302.3 kPa | 957.9
3329.7 kPa | 957.8
3352.8 kPa | 957.8
3377 kPa | 957.9
3405.8 kPa | 957.9
3429.7 kPa | 958.1
3454.8 kPa | 958
3479.6 kPa | 958
3509.6 kPa | 958
3534.6 kPa | 958.1
3565.2 kPa | 957.9
3591.4 kPa | 958.1
3617.6 kPa | 958
3974.4 kPa | 958.4
4012.4 kPa | 958.4
4041.1 kPa | 958.3
4057.6 kPa | 958.4
4063.1 kPa | 958.4
4064.9 kPa | 958.3
4065.5 kPa | 958.5
4066.2 kPa | 958.5
4067.3 kPa | 958.5
4068.5 kPa | 958.5
4069.4 kPa | 958.6
4069.5 kPa | 958.5
4070.6 kPa | 958.4
4070.9 kPa | 958.4
4071.6 kPa | 958.4
4087 kPa | 958.4
4104.9 kPa | 958.6
4128 kPa | 958.5
4142.2 kPa | 958.4
4163.9 kPa | 958.4
4182.2 kPa | 958.4
4200.8 kPa | 958.5
4223.1 kPa | 958.5
4242.2 kPa | 958.5
4261 kPa | 958.6
4283.7 kPa | 958.6
4303.6 kPa | 958.5
4323.2 kPa | 958.5
4347.4 kPa | 958.6
4367.2 kPa | 958.6
4384.2 kPa | 958.6
4401.5 kPa | 958.6
4419 kPa | 958.8
4440.1 kPa | 958.7
4458.6 kPa | 958.6
4475.9 kPa | 958.6
4487.7 kPa | 958.7
4498.8 kPa | 958.7
4507.3 kPa | 958.8
4516.1 kPa | 958.6
4528.2 kPa | 958.7
4546.9 kPa | 958.7
4567.4 kPa | 958.6
4588 kPa | 958.7
4612.9 kPa | 958.7
4634.2 kPa | 958.7
4656 kPa | 958.8
4677.4 kPa | 958.8
4703.4 kPa | 958.9
4725.2 kPa | 958.9
4747.6 kPa | 958.9
4774 kPa | 958.9
4796.4 kPa | 958.9
4819 kPa | 958.9
4845.9 kPa | 958.9
4869.6 kPa | 959
4893.1 kPa | 959
4921 kPa | 959
4945 kPa | 958.9
4968.9 kPa | 959
4997.5 kPa | 959
5022.2 kPa | 959
5047.1 kPa | 959.1
5072.5 kPa | 959.1
5103.3 kPa | 959.1
5129.3 kPa | 959.1
5156.3 kPa | 959.1
5189.2 kPa | 959.2
5217.4 kPa | 959.1
5240.4 kPa | 959.1
5260.4 kPa | 959.1
5280.7 kPa | 959.4
5304 kPa | 959.2
5323.4 kPa | 959.2
5347.3 kPa | 959.4
5367.7 kPa | 959.3
5388.5 kPa | 959.3
5408.9 kPa | 959.3
5429.5 kPa | 959.2
5454.7 kPa | 959.2
5475.8 kPa | 959.3
5497.3 kPa | 959.3
5522.7 kPa | 959.4
5543.9 kPa | 959.5
5565.6 kPa | 959.4
5591.3 kPa | 959.3
5613.3 kPa | 959.5
5635.4 kPa | 959.4
5662.4 kPa | 959.4
5684.7 kPa | 959.6
5707.9 kPa | 959.4
5735.2 kPa | 959.5
5758 kPa | 959.5
5781.4 kPa | 959.5
5804.9 kPa | 959.7
5833.6 kPa | 959.6
5857.5 kPa | 959.6
5886 kPa | 959.5
5910.2 kPa | 959.7
5935.4 kPa | 959.7
5964.8 kPa | 959.7
5989.9 kPa | 959.7
6015.7 kPa | 959.6
6041.2 kPa | 959.8
6072.5 kPa | 959.7
6099.5 kPa | 959.8
6127 kPa | 959.7
6154.7 kPa | 959.8
6180.8 kPa | 959.8
6202.1 kPa | 959.8
6224.2 kPa | 959.8
6246.2 kPa | 959.9
6272.6 kPa | 959.8
6294.4 kPa | 960
6316.9 kPa | 959.8
6344 kPa | 959.8
6366.6 kPa | 959.9
6393.8 kPa | 960
6417.3 kPa | 960
6441.6 kPa | 959.9
6466 kPa | 960
6489.5 kPa | 960.2
6513.7 kPa | 960
6542.9 kPa | 960
6566.4 kPa | 960
6595.3 kPa | 960.1
6619.5 kPa | 960.1
6644.3 kPa | 960
6674.1 kPa | 960.1
6699.1 kPa | 960.1
6724.7 kPa | 960.1
6755.6 kPa | 960.2
6782.2 kPa | 960.3
6809 kPa | 960.2
6835.2 kPa | 960.2
6861.8 kPa | 960.1
6893.8 kPa | 960.2
6920.9 kPa | 960.2
6948.7 kPa | 960.3
6976.5 kPa | 960.3
7009.5 kPa | 960.4
7037.3 kPa | 960.3
7072 kPa | 960.4
7101 kPa | 960.5
7131.4 kPa | 960.4
7161.8 kPa | 960.4
7190 kPa | 960.5
7218.1 kPa | 960.4
7240 kPa | 960.6
7262.7 kPa | 960.5
7289.6 kPa | 960.7
7312 kPa | 960.5
7334.9 kPa | 960.6
7357.8 kPa | 960.5
7385.4 kPa | 960.6
7408.7 kPa | 960.6
7433.1 kPa | 960.6
7457.4 kPa | 960.6
7486.4 kPa | 960.7
7510.8 kPa | 960.7
7534.2 kPa | 960.6
7558.2 kPa | 960.7
7587.6 kPa | 960.7
7611.9 kPa | 960.8
7637.3 kPa | 960.8
7666.8 kPa | 960.8
7692.5 kPa | 960.7
7717.9 kPa | 960.9
7743.3 kPa | 960.9
7773.8 kPa | 960.8
7799.7 kPa | 960.7
7826.1 kPa | 960.9
7857.2 kPa | 961
7883.6 kPa | 960.9
7910 kPa | 961
7941.6 kPa | 961
7968.3 kPa | 961
7995.6 kPa | 961
8028.4 kPa | 961
8056 kPa | 961.1
